# Experimental data reported in patent EP4410314A1, “COMBINATION THERAPY COMPRISING ANTI-CD22 ANTIBODY-DRUG CONJUGATE AND IRAK1 INHIBITOR” (ADC Therapeutics SA, priority 2023, dated 2024).
# Experiments:
# Format in all cases: cell-based, human
# KM-H2 = experiment: In vitro cytotoxicity, KM-H2; settings: KM-H2 (HL), CD22-negative; mean ± SEM
# GRANTA-519 = experiment: In vitro cytotoxicity, GRANTA-519; settings: GRANTA-519 (MCL), CD22-positive; mean ± SEM
# Ramos = experiment: In vitro cytotoxicity, Ramos; settings: Ramos (BL), CD22-positive; mean ± SEM
# KARPAS-299 [1] = experiment: DNA interstrand crosslinks, single cell gel electrophoresis (Comet) assay, KARPAS-299; settings: KARPAS-299 (CD22-negative), over 48 hours following a 2-hour treatment
# Method: (§1) Quantification of in vitro DNA interstrand crosslinks (ICLs) was performed using the single cell gel electrophoresis (Comet) assay.
# (§2) DNA ICLs were measured using a modification of the single-cell gel electrophoresis (Comet) assay, and crosslinking was expressed as the percentage decrease in Olive tail moment (OTM) versus control irradiated cells. […] Immediately after the drug incubation period, a low level of ICLs (3%) was observed, which increased over time to near peak levels (≈50%) at 12 hours and persisted up to 48 hours. […] In this cell line, SG3199 produced a high level of ICL (≈50%), similar to that observed in the Ramos cell line.
# SUP-T1 = experiment: In vitro cytotoxicity, SUP-T1; settings: SUP-T1 (T-LL), CD22-negative; mean ± SEM
# KARPAS-299 [2] = experiment: In vitro cytotoxicity, KARPAS-299; settings: KARPAS-299 (ALCL), CD22-negative; mean ± SEM
# Ramos cells = experiment: DNA interstrand crosslinks, single cell gel electrophoresis (Comet) assay, Ramos
# Method: as §1, §2
# NAMALWA = experiment: In vitro cytotoxicity, NAMALWA; settings: NAMALWA (BL), CD22-positive; mean ± SEM
# REH = experiment: In vitro cytotoxicity, REH; settings: REH (B-ALL), CD22-positive; mean ± SEM
# Daudi = experiment: In vitro cytotoxicity, Daudi; settings: Daudi (BL), CD22-positive; mean ± SEM
# SEM cells = experiment: In vitro cytotoxicity, SEM; settings: SEM (B-ALL), CD22-positive; mean ± SEM
# NALM-6 = experiment: In vitro cytotoxicity, NALM-6; settings: NALM-6 (B-ALL), CD22-positive; mean ± SEM
# DO HH-2 = experiment: In vitro cytotoxicity, DO HH-2; settings: DO HH-2 (FL), CD22-positive; mean ± SEM
# MEC-2 = experiment: In vitro cytotoxicity, MEC-2; settings: MEC-2 (CLL), CD22-positive; mean ± SEM
smiles,measurement,setting,value
COc1cc2c(cc1OCCCCCOc1cc3c(cc1OC)C(=O)N1C=C(C)C[C@H]1C=N3)N=C[C@@H]1CC(C)=CN1C2=O [SG3199],IC50,KM-H2,0.036 ± 0.005 nM
same,IC50,GRANTA-519,0.002 nM
same,IC50,Ramos,0.016 ± 0.001 nM
same,"DNA ICLs, percentage decrease in Olive tail moment (OTM) versus control irradiated cells",KARPAS-299 [1],≈ 50%
same,IC50,SUP-T1,0.026 ± 0.005 nM
same,IC50,KARPAS-299 [2],0.025 ± 0.001 nM
same,"DNA ICLs, percentage decrease in Olive tail moment (OTM) versus control irradiated cells","Ramos cells; 2-hour exposure, immediately after the drug incubation period",46%
same,"DNA ICLs, percentage decrease in Olive tail moment (OTM) versus control irradiated cells",Ramos cells; after 2 hours following drug incubation,56%
same,persistence of DNA ICLs,Ramos cells; following 2-hour exposure,up to 48 hours
same,IC50,NAMALWA,0.014 ± 0.001 nM
same,IC50,REH,0.001 nM
same,IC50,Daudi,0.008 ± 0.001 nM
same,IC50,SEM cells,0.005 ± 0.002 nM
same,IC50,NALM-6,0.002 nM
same,IC50,DO HH-2,0.007 ± 0.001 nM
same,IC50,MEC-2,0.033 ± 0.009 nM
